Test results: patent US9744175B2, “Compositions of combinations of non-covalent DNA binding agents and anti-cancer and/or anti-inflammatory agents and their use in disease treatment” (INDUS PHARMACEUTICALS, INC., priority 2012, dated 2017)

Experiments:
[1] = tested on: HCT116 (mlh−); assay: siRNA inhibition of p53 and REV functions, alamar blue growth inhibition; assay type: cell-based, human
Procedure: (§1) siRNA specific for different genes is purchased from Dharmacon (Thermo. Fisher Scientific Dharmacon Products, Lafayette, Colo. 80026) and the protocol recommended by the supplier is utilized. Confluent cells are trypsinized and 5000 cells are seeded in a well in the presence or absence of siRNA in 100 μL medium. The cells are incubated with siRNA for two days. A non-covalent DNA binding agent of the invention is added in a 10 μL volume and incubated for another 48 hours. After treatment with the agent, the medium is replaced with 1% alamar blue containing medium to measure fluorescence after two hours.
as §1, with “from Dharmacon (Thermo Fisher Scientific” for “from Dharmacon (Thermo. Fisher Scientific”, “two hours. […] The results are presented in FIGS. 14-18 (SEQ ID NO:3-12, respectively) and Table 7.” for “two hours.”

[2] = tested on: U2OS Wild type; assay: siRNA inhibition of MMR, p53 and REV functions, alamar blue growth inhibition; assay type: cell-based, human
Procedure: as §1
as §1, with “from Dharmacon (Thermo Fisher Scientific” for “from Dharmacon (Thermo. Fisher Scientific”, “two hours. […] The results are presented in FIGS. 14-18 (SEQ ID NO:3-12, respectively) and Table 7.” for “two hours.”

[3] = tested on: Wild type yeast; assay: Alamar Blue cell survival assay in yeast cells; assay type: cell-based
Procedure: (§2) The cells are diluted 100-fold in yeast complete medium. 100 μL of diluted cells are seeded in 96 well plates with or without a non-covalent DNA binding compound and incubated for 24 hours at 30° C. The following day, an equal volume of yeast complete medium containing 1% alamar blue is added and incubated at 30° C. for two hours. Fluorescence intensity is measured in a fluorescent reader to calculate the inhibition effect of non-covalent DNA binding agents in mutant and wild type yeast cells.
(§3) Yeast cells that carry mutations in different genes involved in homologous recombination (rad 50, rad51, rad52, and rad57) and nucleotide excision/double strand repair (rad1) are grown to stationary culture overnight.

[4] = tested on: yeast rad1 mutation; assay: Alamar Blue cell survival assay in yeast cells; assay type: cell-based
Procedure: as §2, §3

[5] = tested on: yeast rad50 mutation; assay: Alamar Blue cell survival assay in yeast cells; assay type: cell-based
Procedure: as §2, §3

[6] = tested on: yeast rad51 mutation; assay: Alamar Blue cell survival assay in yeast cells; assay type: cell-based
Procedure: as §2, §3

[7] = tested on: yeast rad52 mutation; assay: Alamar Blue cell survival assay in yeast cells; assay type: cell-based
Procedure: as §2, §3

Question: Which IC50 ([1]; Homo sapiens, HCT-116, no siRNA knock out, read-out: IC50, Control) does the source give for `CC[C@@]1(O)C(=O)OCc2c1cc1n(c2=O)Cc2cc3ccccc3nc2-1` [Camptothecin, (S)-4-ethyl-4-hydroxy-1H-pyrano[3′,4′:6,7]indolizino[1,2-b]quinoline-3,14-(4H,12H)-dione, reference compound] here?
Answer: 0.25 µM

Question: What about the “Fold improvement in IC50, p53” value ([1]; p53 siRNA vs control) of the same molecule?
Answer: 1.3 fold

Question: And the “Fold improvement in IC50, rev” value ([1]; rev siRNA vs control)?
Answer: 1.7 fold

Question: Which results are given for `COc1cccc2c1C(=O)c1c(O)c3c(c(O)c1C2=O)C[C@@](O)(C(=O)CO)C[C@@H]3OC1CC(N)C(O)C(C)O1` (stereo partly drawn) [Doxorubicin, (8S,10S)-10-(4-amino-5-hydroxy-6-methyl-tetrahydro-2H-pyran-2-yloxy)-6,8,11-trihydroxy-8-(2-hydroxyacetyl)-1-methoxy-7,8,9,10-tetrahydrotetracene-5,12-dione, reference compound]?
Answer: IC50 ([2]; Homo sapiens, no siRNA knock out, read-out: IC50, Control): 0.7 µM; Fold improvement in IC50, mlh1 ([2]; mlh1 siRNA vs control): 0.23 fold; Fold improvement in IC50, p53 ([2]; p53 siRNA vs control): 0.7 fold; Fold improvement in IC50, rev ([2]; rev siRNA vs control): 0.35 fold

Question: With `COc1cc2c(cc1OCCCCOc1cc(-c3ccc(F)cc3)nc(C)n1)N=C[C@@H]1CCCN1C2=O` [NSC 723732] as the molecule, how does the IC50 [3] read?
Answer: > 250 µM

Question: And the IC50 [4]?
Answer: > 250 µM

Question: And the IC50 [5]?
Answer: > 250 µM

Question: And the IC50 [6]?
Answer: 100 µM

Question: What about the IC50 [7] of the same molecule?
Answer: 105 µM
